According to patent publication US20080306019A1, “Dopamine Receptor Agonists in the Treatment and Prevention of Hiv-Induced Dementia” (priority 2005, published 2008):

Columns and labels:
rat hippocampal neurons = test: Intracellular ROS production (DCF fluorescence) in rat hippocampal neuronal cultures; format: cell-based
Description: Neuronal cultures were incubated with 10 μM H2DCFDA (Molecular Probes, Eugene, Oreg.) for 60 min at 37° C. in PBS.
No decrease in neuronal viability occur-red in cell cultures subjected to Tat alone or Tat+cocaine after 2 hours of treatment.

human fetal neurons = test system: human fetal neurons
Description: Culture of Human Brain Cells: Neuronal cultures were prepared as described previously (Magnuson D S, et al. Ann Neurol 1995, 37: 373-380; Nath A, et al. J Virol 1996, 70: 1475-1480; New D, et al. J Neurovirol 1997, 3: 168-173). Human fetal brain specimens of gestational age 12-14 weeks were obtained with the consent of women opting for elective termination of pregnancy. Protocols were carried out with strict adherence to the guidelines of the National Institutes of Health (NIH) and with approval from the University of Kentucky Institutional Review Board. Briefly, after mechanical dissociation, the cells were suspended in Opti-MEM with 5% heat-inactivated fetal bovine serum, 0.2% N2 supplement and 1% antibiotic solution (penicillin G sodium 104 units/ml, streptomycin sulfate 10 μg/ml and amphotericin-B 25 μg/ml) (GIBCO). The cells were maintained in culture flasks at 37° C. in a humidified atmosphere of 5% CO2 and 95% air for at least a month. At least 3 days before the experiment was performed the cells were plated in flat bottom 96 well plates coated with poly-d-lysine. Sample cultures were stained for the neuron-specific enolase, microtubule-associated protein-2, synaptophysin, and glial fibrillary astrocytic protein (GFAP). […] Sample cultures were further characterized for the presence of ER-α and ER-β and dopaminergic neurons.
Neurotoxicity Assay: At the time of the experimental treatment, the culture media was replaced with Locke's buffer containing (in mM) 154 NaCl, 5.6 KCl, 2.3 CaCl2, 1 MgCl2, 3.6 NaHCO3, 5 glucose, 5 N-2-hydroxyethylpiperazine-N′2-ethanesulfonic acid (HEPES) and 1% antibiotic solution (penicillin G sodium 104 units/ml, streptomycin sulfate 10 μg/ml and amphotericin-B 25 μg/ml) (pH 7.2). […] To replicate the stereoisomer specific neuroprotective properties of estrogen, the cultures were treated with either […] (10 nM), or 17α-E2 (10 nM) immediately preceding addition of the HIV proteins plus cocaine. To investigate the neuroprotective properties of other gonadal steroids, the cells were treated with various concentrations of PROG or T, immediately followed by exposure to the HIV proteins plus cocaine. […] Various concentrations of cholesterol were used as treatment prior to incubation with the HIV proteins plus cocaine to further characterize the nature of gonadal steroid neuroprotection. ICI-182,780, DMSO (10 nM), β-cyclodextrin (100 nM) and ethanol (10 nM) were also tested for neurotoxic/protective effects. ICI-182,780 and 17α-E2 were solvated in DMSO. […], T, PROG and cholesterol were β-cyclodextrin encapsulated to provide water solubility. Ethanol was used to solvate DHT. Tat1-72 was produced as indicated above, whereas gp120 was a gift from Chiron Corporation. The ICI-182,780 compound was obtained from Tocris Cookson, Inc. (Ellisville, Mo.). All other chemical agents were supplied by Sigma Chemicals (St. Louis, Mo.). At the end of the incubation period neuronal death was assessed by trypan blue (Sigma) exclusion assay as described previously (Vongher J and Frye C. Pharmacol Biochem Behav 1999, 64: 777-785; Magnuson D S, et al. Ann Neurol 1995, 37: 373-380; Nath A, et al. J Virol 1996, 70: 1475-1480).

[1] = test system: adult female Sprague-Dawley rats (ovariectomized); test: Locomotor activity after intra-accumbal Tat and IV cocaine (Example 4); format: in vivo, rat; settings: IV cocaine 3.0 mg/kg, saline intra-accumbal
Description: Animals. […] Ovariectomy was also performed on all rats during the same surgical procedure.
Intra-accumbal TAT injection. A 2 treatment×2 drug, design was used. Thus, rats received bilateral injections of TAT or vehicle into the nucleus accumbens core and were subsequently administered an IV injection of cocaine (3.0 mg/kg/injection) or saline. Rats were administered intra-accumbal TAT or VEH injections according to methods previously described (Bansal et al., 2000). Briefly, 15 μg of Tat were injected bilaterally, using a Hamilton Syringe coated with Sigmacote, at the following coordinates: 1.8 mm anterior, ±1.6 mm lateral, and 7.0 mm ventral from bregma on the skull surface.
Locomotor activity. The activity monitors were 16-cm diameter, round open-field chambers (Flex-Field, San Diego Instruments, San Diego, Calif.) that detected free movement of animals by infrared photocell interruptions. This equipment used an infrared photocell grid (32 emitter/detector pairs) to measure total locomotor activity. […]
Drug Treatment. […] The dose of cocaine hydrochloride (3.0 mg/kg/day; Sigma, St. Louis, Mo.) was calculated on the weight of the salt and dissolved in saline for an injection volume of 1 ml/kg.

## COC(=O)[C@H]1[C@@H](OC(=O)c2ccccc2)C[C@@H]2CC[C@H]1N2C.Cl [cocaine, Cocaine hydrochloride]
Rat hippocampal neurons; 1.6 μM cocaine + 50 nM Tat, 2 hours
  intracellular ROS production, cocaine + Tat vs Tat alone: increased intracellular ROS production relative to cultures treated with 50 nM Tat alone
Rat hippocampal neurons; 48 hours of treatment
  difference in DCF fluorescence, Tat+cocaine vs Tat: not significant
Rat hippocampal neurons; cocaine alone
  DCF fluorescence, cocaine alone: did not cause changes in DCF fluorescence
Human fetal neurons; Tat 40 nM + gp120 32.5 pM + cocaine 1.6 μM
  toxicity of HIV proteins combined with cocaine: synergistic neurotoxicity
Human fetal neurons; substance alone, 15 hours
  toxicity alone vs Locke's buffer: Neither the HIV proteins, Tat plus gp120, nor cocaine alone were more toxic than the Locke's buffer control
[1]
  centrally directed activity, cocaine: cocaine-induced increase in centrally directed activity
